Assay results reported in patent publication US9695155B2, “Herbicidal substituted pyrimidinyloxy benzene compounds” (E. I. DU PONT DE NEMOURS AND COMPANY, priority 2013, dated 2017).

Tests used:
[1] = test system: barnyardgrass; assay: Test A preemergence; type: in vivo, Echinochloa crus-galli
Procedure, shortened: (§1)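 Pre- and postemergence greenhouse screen. Soil: loam + sand. Spray carrier: solvent mixture, non-phytotoxic, with surfactant. Post timing at 1–2 leaves, height 2–10 cm. Readout: visual injury on a 0–100 scale roughly 10 days after application, untreated plants as reference.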

[2] = test system: large (Lg) crabgrass; assay: Test A preemergence; type: in vivo, Digitaria sanguinalis
Procedure, shortened: as §1

[3] = test system: giant foxtail; assay: Test A preemergence; type: in vivo, Setaria faberii
Procedure, shortened: as §1

[4] = test system: morningglory; assay: Test A preemergence; type: in vivo, Ipomoea spp.
Procedure, shortened: as §1

[5] = test system: pigweed; assay: Test A preemergence; type: in vivo, Amaranthus retroflexus
Procedure, shortened: as §1

[6] = test system: velvetleaf; assay: Test A preemergence; type: in vivo, Abutilon theophrasti
Procedure, shortened: as §1

[7] = test system: wheat; assay: Test A preemergence; type: in vivo, Triticum aestivum
Procedure, shortened: as §1

[8] = test system: corn; assay: Test A preemergence; type: in vivo, Zea mays
Procedure, shortened: as §1

[9] = test system: barnyardgrass; assay: Test A postemergence; type: in vivo, Echinochloa crus-galli
Procedure, shortened: as §1

[10] = test system: large (Lg) crabgrass; assay: Test A postemergence; type: in vivo, Digitaria sanguinalis
Procedure, shortened: as §1

[11] = test system: giant foxtail; assay: Test A postemergence; type: in vivo, Setaria faberii
Procedure, shortened: as §1

[12] = test system: morningglory; assay: Test A postemergence; type: in vivo, Ipomoea spp.
Procedure, shortened: as §1

[13] = test system: pigweed; assay: Test A postemergence; type: in vivo, Amaranthus retroflexus
Procedure, shortened: as §1

[14] = test system: velvetleaf; assay: Test A postemergence; type: in vivo, Abutilon theophrasti
Procedure, shortened: as §1

[15] = test system: wheat; assay: Test A postemergence; type: in vivo, Triticum aestivum
Procedure, shortened: as §1

[16] = test system: corn; assay: Test A postemergence; type: in vivo, Zea mays
Procedure, shortened: as §1

[17] = test system: rice; assay: Test B flooded paddy test; type: in vivo, Oryza sativa; details: Flood, 250 g ai/ha; 0 to 100 scale where 0 is no effect and 100 is complete control
Procedure, shortened: (§2)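 Post-emergence paddy-water application at the 2-leaf stage, with 3 cm flood kept for the whole test. Response was judged visually relative to controls after 13 to 15 greenhouse days, 0 indicating no effect and 100 complete control.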

[18] = test system: sedge, umbrella; assay: Test B flooded paddy test; type: in vivo, Cyperus difformis; details: Flood, 250 g ai/ha; 0 to 100 scale where 0 is no effect and 100 is complete control
Procedure, shortened: as §2

[19] = test system: Heteranthera limosa; assay: Test B flooded paddy test; type: in vivo; details: Flood, 250 g ai/ha; 0 to 100 scale where 0 is no effect and 100 is complete control
Procedure, shortened: as §2

[20] = test system: barnyardgrass; assay: Test B flooded paddy test; type: in vivo, Echinochloa crus-galli; details: Flood, 250 g ai/ha; 0 to 100 scale where 0 is no effect and 100 is complete control
Procedure, shortened: as §2

[21] = test system: rice; assay: Test C flooded paddy test; type: in vivo, Oryza sativa; details: Flood, scale 0 to 100 (0 no effect, 100 complete control), 13 to 15 days
From the text: (§3) At time of treatment, test pots were flooded to 3 cm above the soil surface, treated by application of test compounds directly to the paddy water, and then maintained at that water depth for the duration of the test. Treated plants and controls were maintained in a greenhouse for 13 to 15 days, after which time all species were compared to controls and visually evaluated. […] A dash (-) response means no test result.

[22] = test system: sedge, umbrella; assay: Test C flooded paddy test; type: in vivo, Cyperus difformis; details: Flood, scale 0 to 100 (0 no effect, 100 complete control), 13 to 15 days
From the text: as §3

[23] = test system: ducksalad; assay: Test C flooded paddy test; type: in vivo, Heteranthera limosa; details: Flood, scale 0 to 100 (0 no effect, 100 complete control), 13 to 15 days
From the text: as §3

[24] = test system: barnyardgrass; assay: Test C flooded paddy test; type: in vivo, Echinochloa crus-galli; details: Flood, scale 0 to 100 (0 no effect, 100 complete control), 13 to 15 days
From the text: as §3

[25] = 125 g ai/ha, 0 to 100 scale where 0 is no effect and 100 is complete control
[26] = 500 g ai/ha, 0 to 100 scale, 0 no effect, 100 complete control, approx. 10 days
[27] = 500 g ai/ha, 0 to 100 scale, 0 no effect, 100 complete control

Compound: Brc1cnc(Oc2ccccc2-n2cc(Br)cn2)nc1 [Compound 8]
- Barnyardgrass plant response rating [1, 25]: 50
- Barnyardgrass plant response rating [1, 26]: 90
- Crabgrass, Large plant response rating [2, 25]: 80
- Crabgrass, Large plant response rating [2, 26]: 100
- Foxtail, Giant plant response rating [3, 25]: 70
- Foxtail, Giant plant response rating [3, 26]: 100
- Morningglory plant response rating [4, 25]: 20
- Morningglory plant response rating [4, 26]: 30
- Pigweed plant response rating [5, 25]: 90
- Pigweed plant response rating [5, 26]: 100
- Velvetleaf plant response rating [6, 25]: 100
- Velvetleaf plant response rating [6, 26]: 100
- Wheat plant response rating [7, 25]: 0
- Wheat plant response rating [7, 26]: 0
- Corn plant response rating [8, 25]: 0
- Corn plant response rating [8, 26]: 0
- Plant response rating, Barnyardgrass [9, 25]: 30
- Plant response rating, Barnyardgrass [9, 27]: 90
- Plant response rating, Crabgrass, Large [10, 25]: 50
- Plant response rating, Crabgrass, Large [10, 27]: 90
- Plant response rating, Foxtail, Giant [11, 25]: 50
- Plant response rating, Foxtail, Giant [11, 27]: 90
- Plant response rating, Morningglory [12, 25]: 70
- Plant response rating, Morningglory [12, 27]: 100
- Plant response rating, Pigweed [13, 25]: 100
- Plant response rating, Pigweed [13, 27]: 100
- Plant response rating, Velvetleaf [14, 25]: 100
- Plant response rating, Velvetleaf [14, 27]: 100
- Plant response rating, Wheat [15, 25]: 0
- Plant response rating, Wheat [15, 27]: 20
- Plant response rating, Corn [16, 25]: 0
- Plant response rating, Corn [16, 27]: 30
- Plant response rating, Rice [17]: 30
- Plant response rating, Sedge, Umbrella [18]: 80
- Plant response rating, Ducksalad [19]: 100
- Plant response rating, Barnyardgrass [20]: 0
- Plant response rating, Rice ([21]; 31 g ai/ha): 0
- Plant response rating, Rice ([21]; 62 g ai/ha): 0
- Plant response rating, Rice ([21]; 125 g ai/ha): 10
- Plant response rating, Rice ([21]; 250 g ai/ha): 10
- Plant response rating, Sedge, Umbrella ([22]; 31 g ai/ha): 0
- Plant response rating, Sedge, Umbrella ([22]; 62 g ai/ha): 50
- Plant response rating, Sedge, Umbrella ([22]; 125 g ai/ha): 75
- Plant response rating, Sedge, Umbrella ([22]; 250 g ai/ha): 85
- Plant response rating, Ducksalad ([23]; 31 g ai/ha): 0
- Plant response rating, Ducksalad ([23]; 62 g ai/ha): 40
- Plant response rating, Ducksalad ([23]; 125 g ai/ha): 50
- Plant response rating, Ducksalad ([23]; 250 g ai/ha): 70
- Plant response rating, Barnyardgrass ([24]; 31 g ai/ha): 0
- Plant response rating, Barnyardgrass ([24]; 62 g ai/ha): 0
- Plant response rating, Barnyardgrass ([24]; 125 g ai/ha): 0
- Plant response rating, Barnyardgrass ([24]; 250 g ai/ha): 0
